What was measured:
[1] = set-up: method as in doi:10.2174/1573412916666200206141439; conditions: effect of PEG400; cited from earlier work
BCRP = test: Permeation experiments on Caco-2 cell monolayer (two-way transport); assay type: in vitro ADME, human; conditions: human, Caco-2, with KO143 10 µM (BCRP inhibitor), 5 + 10 µM KO143 (BCRP inhibitor); for efflux ratio at 120 min, 5 µM: read-out: ER (P BL-AP)/(P AP-BL); for Papp A→B at 120 min, 5 µM: read-out: P app Absorptive (AP-BL); for Papp B→A at 120 min, 5 µM: read-out: P app Secretory (BL-AP)
Experimental: (§1) Cell culture was performed as previously described.[15] For transport experiments, Caco-2 cells from passage number 20-30 were seeded at a density of 2 × 10^5 cells per well on transwell plate (a solid insert for cell culture contains porous permeable polycarbonate membrane) with polycarbonate membranes using a blood-counting chamber (QIU JING®). A 0.5 ml of culture medium with cells was added to the apical side (AP) and 1.5 ml of blank culture medium was added to the basolateral side (BL). During the incubation period, the medium on the AP and BL sides were changed every 2 days in the first week, and every day after a week until the 21st day. The permeation of samples was assessed in both directions at different concentrations. This experiment assessed the influence of different concentrations (%, v/v) of PEG400 on the permeation process of B, BG, and […]. […] Caco-2 cell monolayers with qualified monolayer membrane integrity were used for drug permeability experiments. Aspirated and discarded the original culture medium in the transwell plate, added pre-warmed (37°C) HBSS to wash 3 times, put it in the incubator for the last time and incubated for 30 min. […] For the AP-BL permeability (absorptive transport study), add 0.5 ml of samples (dissolved in HBSS) to the apical side (AP) as a supply chamber, and add 1.5 ml of pre-warmed HBSS to the basolateral side (BL) as a receiving chamber. Alternatively, in the permeation direction of BL-AP compartment (secretive transport study), add 1.5 ml of samples (dissolved in HBSS) to the BL side as a supply chamber, and add 0.5 ml of pre-warmed HBSS to the AP side as a receiving chamber. After the above steps, put the transwell plate on the thermostatic oscillator (Changzhou Wanhe Instrument Manufacturing Co., Ltd.) at 60 r/min. And sample 100 μl from the receiving pool or 10 μl from the supply chamber at 30, 60, 90, and 120 min depending on the experiment, and make up the same volume of blank pre-warmed HBSS. The sample taken from the transwell plate was precipitated with the 100 μl of methanol to precipitate the protein. After centrifugation at 16 000g for 15 min at 4°C, 70 μl of the supernatant was taken. And the content was determined by UPLC-MS/MS method to calculate the apparent permeability coefficient (P app) and efflux ratio (ER). The P app and ER of Caco-2 monolayers was measured and calculated as Equations ((2), (3), (4)): (2) Papp=dQ/dt/AC0 Where ΔQ/Δt (ng/ml·s) is the rate of permeability (ng/ml·s for B, BG, […]); A is for the membrane area (1.12 cm^2); C 0 (ng/ml/for B, BG, […]) is the initial concentration of the sample in the supply chamber. The apparent permeability might need to be corrected because of the effect of the marked amount of baicalein glucuronide.[17] Thus, the corrected permeability was calculated from the total rate of drug transport and the glucuronide excretion rate of bidirectional side divided by the membrane area (A) of the monolayer and the initial concentration of baicalein at the loading side (C 0): (3) Pcorrected=dQ/dt+Aex+Bex/AC0 (4) […] - BL Where P appBL-AP is the apparent permeability coefficient when the sample is added on the basolateral side; […]-BL is the apparent permeability coefficient when the sample is added on the apical side.

P-gp = test: as above; assay type: in vitro ADME, human; conditions: human, Caco-2, with verapamil 10 µM, 5 + 10 µM Ver (P-GP inhibitor); for efflux ratio at 120 min, 5 µM: read-out: ER (P BL-AP)/(P AP-BL)
Experimental: as §1

[2] = as above; assay type: in vitro ADME, human; conditions: human, Caco-2, 5 µM; for efflux ratio at 120 min, 5 µM: read-out: ER (P BL-AP)/(P AP-BL); for Papp A→B at 120 min, 5 µM: read-out: P app Absorptive (AP-BL); for Papp B→A at 120 min, 5 µM: read-out: P app Secretory (BL-AP)
Experimental: as §1

Caco-2 cell monolayer = test: as above; assay type: in vitro ADME, human; conditions: for P appAL-BL / P appBL-AL: 5 μM in supply chamber; for permeation within 2 h compared with the control group: AL-BL experiment, baicalein 10 μM loaded with 0.5% (v/v) PEG400; for penetration within 2 h compared with the control group: BL-AP experiment, baicalein 10 μM loaded with 0.5% (v/v) PEG
Experimental: as §1

MRP2 = test: as above; assay type: in vitro ADME, human; conditions: human, Caco-2, with MK-571 10 µM, 5 + 10 µM MK571 (MRP inhibitor); for efflux ratio at 120 min, 5 µM: read-out: ER (P BL-AP)/(P AP-BL); for Papp A→B at 120 min, 5 µM: read-out: P app Absorptive (AP-BL); for Papp B→A at 120 min, 5 µM: read-out: P app Secretory (BL-AP)
Experimental: as §1

Stability study in HBSS = assay type: physicochemical; conditions: 37°C, 2 h
Experimental: The test was carried out by measuring the content of B, BG, and B6G before and after keeping in the HBSS solution at 37°C for 2 h. The time interval was selected according to the permeation experiment. The differences between the contents of the three samples before or after the incubation were calculated and expressed as the percentage of B, BG, and B6G remaining.

Compound	AUC0-t in plasma [1]	C max in plasma [1]	efflux ratio at 120 min, 5 µM (BCRP)	Papp A→B at 120 min, 5 µM (BCRP) [×10⁻⁶ cm/s]	Papp B→A at 120 min, 5 µM (BCRP) [×10⁻⁶ cm/s]	efflux ratio at 120 min, 5 µM (P-gp)	efflux ratio at 120 min, 5 µM [2]	Papp A→B at 120 min, 5 µM [2] [×10⁻⁶ cm/s]	Papp B→A at 120 min, 5 µM [2] [×10⁻⁶ cm/s]	ER (P BL-AP)/(P AP-BL) (Caco-2 cell monolayer; 5 µM + 0.25%PEG400)	P app Absorptive (AP-BL) (Caco-2 cell monolayer; 5 µM + 0.25%PEG400)	P app Secretory (BL-AP) (Caco-2 cell monolayer; 5 µM + 0.25%PEG400)	ER (P BL-AP)/(P AP-BL) (Caco-2 cell monolayer; 5 µM + 0.5%PEG400)	P app Absorptive (AP-BL) (Caco-2 cell monolayer; 5 µM + 0.5%PEG400)	P app Secretory (BL-AP) (Caco-2 cell monolayer; 5 µM + 0.5%PEG400)	ER (P BL-AP)/(P AP-BL) (Caco-2 cell monolayer; 5 µM + 1%PEG400)	P app Absorptive (AP-BL) (Caco-2 cell monolayer; 5 µM + 1%PEG400)	P app Secretory (BL-AP) (Caco-2 cell monolayer; 5 µM + 1%PEG400)	P appAL-BL (Caco-2 cell monolayer) [cm/s]	P appBL-AL (Caco-2 cell monolayer) [cm/s]	further results
O=C(O)[C@H]1O[C@@H](Oc2c(O)cc3oc(-c4ccccc4)cc(=O)c3c2O)[C@H](O)[C@@H](O)[C@@H]1O [B6G, baicalein‐6‐O‐β‐D‐glucuronide]	significantly increased	significantly increased	0.71	6.68 ± 0.06	4.77 ± 0.09	0.98	1.1	6.38 ± 0.26	6.35 ± 0.55	0.93	6.74 ± 0.22 1 × 10^−6 cm·s^−1	6.3 ± 0.98 1 × 10^−6 cm·s^−1	0.71	6.15 ± 0.17 ^* 1 × 10^−6 cm·s^−1	4.39 ± 0.31 ^* 1 × 10^−6 cm·s^−1	0.56	7.53 ± 0.48 ^* 1 × 10^−6 cm·s^−1	4.24 ± 0.25 ^** 1 × 10^−6 cm·s^−1	6.38e-06 ± 2.6e-07	6.35e-06 ± 5.5e-07	ER (P BL-AP)/(P AP-BL) (Caco-2 cell monolayer; 5 µM): 1.01; P app Absorptive (AP-BL) (Caco-2 cell monolayer; 5 + 10 µM Ver (P-GP inhibitor)): 6.37 ± 0.15 1 × 10^−6 cm·s^−1; P app Secretory (BL-AP) (Caco-2 cell monolayer; 5 + 10 µM Ver (P-GP inhibitor)): 6.26 ± 0.2 1 × 10^−6 cm·s^−1; permeation within 2 h compared with the control group (Caco-2 cell monolayer): significantly increased; penetration within 2 h compared with the control group (Caco-2 cell monolayer): did not show a significant difference; efflux ratio at 120 min, 5 µM (MRP2): 0.65; Papp A→B at 120 min, 5 µM (MRP2): 6.91 ± 0.23 ×10⁻⁶ cm/s; Papp B→A at 120 min, 5 µM (MRP2): 4.56 ± 0.21 ×10⁻⁶ cm/s; Stability (percentage remaining) (Stability study in HBSS; 150 ng ml^−1): 98.71 ± 6.52%; Stability (percentage remaining) (Stability study in HBSS; 300 ng ml^−1): 99.36 ± 6.23%; Stability (percentage remaining) (Stability study in HBSS; 600 ng ml^−1): 94.32 ± 5.33%
O=C(O)[C@H]1O[C@@H](Oc2cc3oc(-c4ccccc4)cc(=O)c3c(O)c2O)[C@H](O)[C@@H](O)[C@@H]1O [BG, baicalein‐7‐O‐β‐D‐glucuronide]	significantly increased	significantly increased	0.62	10.9 ± 0.4	7.31 ± 0.9	1.65	1.57	6.52 ± 0.28	10.2 ± 0.37	1.03	9.91 ± 0.21 ^** 1 × 10^−6 cm·s^−1	10.24 ± 0.95 1 × 10^−6 cm·s^−1	0.65	15.98 ± 0.11 ^** 1 × 10^−6 cm·s^−1	10.36 ± 0.05 1 × 10^−6 cm·s^−1	0.57	14.37 ± 0.99 ^** 1 × 10^−6 cm·s^−1	8.24 ± 0.07 ^** 1 × 10^−6 cm·s^−1	6.52e-06 ± 2.8e-07	1.023e-05 ± 3.7e-07	Papp A→B at 120 min, 5 µM (P-gp; read-out: P app Absorptive (AP-BL)): 6.37 ± 0.53 ×10⁻⁶ cm/s; Papp B→A at 120 min, 5 µM (P-gp; read-out: P app Secretory (BL-AP)): 10.5 ± 0.14 ×10⁻⁶ cm/s; permeation within 2 h compared with the control group (Caco-2 cell monolayer): significantly increased; penetration within 2 h compared with the control group (Caco-2 cell monolayer): did not show a significant difference; efflux ratio at 120 min, 5 µM (MRP2): 0.86; Papp A→B at 120 min, 5 µM (MRP2): 13.2 ± 1.22 ×10⁻⁶ cm/s; Papp B→A at 120 min, 5 µM (MRP2): 11.4 ± 0.56 ×10⁻⁶ cm/s; Stability (percentage remaining) (Stability study in HBSS; 150 ng ml^−1): 93.35 ± 8.25%; Stability (percentage remaining) (Stability study in HBSS; 300 ng ml^−1): 99.20 ± 2.56%; Stability (percentage remaining) (Stability study in HBSS; 600 ng ml^−1): 100.61 ± 4.92%

From PMC8929329, “The pharmaceutical excipient PEG400 affect the absorption of baicalein in Caco‐2 monolayer model by interacting with UDP‐glucuronosyltransferases and efflux transport proteins” (Pharmacology Research & Perspectives, 2022)
